In the kinase profiling compilation of Christmann-Franck et al. (2016):

Tests used:
Test in all cases: radiometric filter-binding kinase assay
[1] = tested on: AKT2 (human), P31751 [S474D]
AURKA (human) = AURKA (human) (UniProt O14965)
AURKB (human) = AURKB (human) (UniProt Q96GD4)
CHEK1 (human) = CHEK1 (human) (UniProt O14757)
CSNK1D (human) = CSNK1D (human) (UniProt P48730)
EEF2K (human) = EEF2K (human) (UniProt O00418)
EPHB1 (human) = EPHB1 (human) (UniProt P54762)
EPHB4 (human) = EPHB4 (human) (UniProt P54760)
FGFR1 (human) = FGFR1 (human) (UniProt P11362)
FGFR1 (human), sequence (P11362 whole entry, looked up): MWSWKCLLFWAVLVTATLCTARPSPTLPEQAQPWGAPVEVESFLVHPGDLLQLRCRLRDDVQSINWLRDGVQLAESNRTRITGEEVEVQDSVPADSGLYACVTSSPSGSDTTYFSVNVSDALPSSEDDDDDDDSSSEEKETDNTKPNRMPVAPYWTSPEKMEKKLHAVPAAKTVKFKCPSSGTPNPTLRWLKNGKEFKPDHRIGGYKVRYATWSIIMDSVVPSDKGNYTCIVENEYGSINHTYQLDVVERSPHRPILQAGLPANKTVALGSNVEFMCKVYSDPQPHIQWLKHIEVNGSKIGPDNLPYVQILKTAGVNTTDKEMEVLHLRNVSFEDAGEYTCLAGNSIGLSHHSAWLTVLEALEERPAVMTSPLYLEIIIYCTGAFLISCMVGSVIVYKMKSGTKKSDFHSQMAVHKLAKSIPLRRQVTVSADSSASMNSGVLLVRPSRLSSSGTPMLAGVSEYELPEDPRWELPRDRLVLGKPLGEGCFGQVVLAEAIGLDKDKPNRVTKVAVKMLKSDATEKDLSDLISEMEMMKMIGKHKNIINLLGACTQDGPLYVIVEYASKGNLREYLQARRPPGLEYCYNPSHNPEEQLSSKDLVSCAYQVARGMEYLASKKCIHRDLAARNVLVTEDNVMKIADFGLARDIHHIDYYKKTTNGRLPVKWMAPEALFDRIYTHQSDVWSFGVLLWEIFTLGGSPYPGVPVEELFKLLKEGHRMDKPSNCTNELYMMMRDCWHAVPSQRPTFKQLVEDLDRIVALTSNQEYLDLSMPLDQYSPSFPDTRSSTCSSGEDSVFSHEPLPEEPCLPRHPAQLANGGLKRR

FLT1 (human) = FLT1 (human) (UniProt P17948); settings: compound 10.0 µM
GCK (human) = GCK (human) (UniProt Q12851)
GSK3B (human) = GSK3B (human) (UniProt P49841)
HIPK1 (human) = HIPK1 (human) (UniProt Q86Z02)
HIPK2 (human) = HIPK2 (human) (UniProt Q9H2X6)
IGF1R (human) = IGF1R (human) (UniProt P08069)
MAP2K2 (human) = MAP2K2 (human) (UniProt P36507)
MAP3K5 (human) = MAP3K5 (human) (UniProt Q99683)
MAP3K9 (human) = MAP3K9 (human) (UniProt P80192)
MAP3K9 (human), sequence (P80192 whole entry, looked up): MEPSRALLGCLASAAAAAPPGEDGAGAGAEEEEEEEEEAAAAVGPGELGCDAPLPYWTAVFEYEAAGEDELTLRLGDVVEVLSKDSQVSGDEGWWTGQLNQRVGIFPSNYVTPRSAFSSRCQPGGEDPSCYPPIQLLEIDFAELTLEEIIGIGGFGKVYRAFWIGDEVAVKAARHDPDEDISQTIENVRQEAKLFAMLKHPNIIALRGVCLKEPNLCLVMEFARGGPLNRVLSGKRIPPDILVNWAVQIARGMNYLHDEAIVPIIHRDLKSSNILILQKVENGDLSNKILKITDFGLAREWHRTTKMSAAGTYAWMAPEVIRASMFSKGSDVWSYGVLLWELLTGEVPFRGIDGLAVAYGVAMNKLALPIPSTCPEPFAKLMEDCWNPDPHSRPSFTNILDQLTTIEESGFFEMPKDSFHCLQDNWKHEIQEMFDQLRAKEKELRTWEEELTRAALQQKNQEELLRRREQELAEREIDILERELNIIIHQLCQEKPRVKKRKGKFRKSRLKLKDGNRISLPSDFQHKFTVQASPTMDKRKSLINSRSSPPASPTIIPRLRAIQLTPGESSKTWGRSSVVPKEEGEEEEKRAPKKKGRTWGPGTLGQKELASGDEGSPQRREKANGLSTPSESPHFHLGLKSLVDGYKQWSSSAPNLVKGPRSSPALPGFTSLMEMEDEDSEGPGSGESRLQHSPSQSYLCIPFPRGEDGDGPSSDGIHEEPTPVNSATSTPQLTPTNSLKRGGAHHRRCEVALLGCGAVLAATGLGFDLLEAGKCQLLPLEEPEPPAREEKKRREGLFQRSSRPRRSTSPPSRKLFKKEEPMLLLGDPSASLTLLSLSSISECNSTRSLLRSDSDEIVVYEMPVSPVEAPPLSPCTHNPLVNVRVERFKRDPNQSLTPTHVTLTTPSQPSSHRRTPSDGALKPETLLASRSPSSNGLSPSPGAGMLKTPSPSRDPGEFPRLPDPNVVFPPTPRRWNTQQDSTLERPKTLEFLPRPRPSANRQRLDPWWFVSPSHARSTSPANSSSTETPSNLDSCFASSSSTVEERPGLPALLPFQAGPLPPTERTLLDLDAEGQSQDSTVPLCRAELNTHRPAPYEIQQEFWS

MAPK1 (human) = MAPK1 (human) (UniProt P28482)
MAPK10 (human) = MAPK10 (human) (UniProt P53779); settings: compound 10.0 µM
MAPK13 (human) = MAPK13 (human) (UniProt O15264)
MAPK13 (human), sequence (O15264 whole entry, looked up): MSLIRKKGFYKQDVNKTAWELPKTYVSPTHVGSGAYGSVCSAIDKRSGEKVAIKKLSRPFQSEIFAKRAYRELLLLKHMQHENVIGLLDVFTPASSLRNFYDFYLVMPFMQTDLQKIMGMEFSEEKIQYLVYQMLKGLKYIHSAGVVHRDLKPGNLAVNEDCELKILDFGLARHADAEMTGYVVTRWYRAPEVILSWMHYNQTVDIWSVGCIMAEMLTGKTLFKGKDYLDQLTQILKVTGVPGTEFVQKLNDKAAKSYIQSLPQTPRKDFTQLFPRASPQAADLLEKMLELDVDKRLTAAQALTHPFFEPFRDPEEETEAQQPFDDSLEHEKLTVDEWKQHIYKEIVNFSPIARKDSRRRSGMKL

MAPK9 (human) = MAPK9 (human) (UniProt P45984)
MARK4 (human) = MARK4 (human) (UniProt Q96L34)
MARK4 (human), sequence (Q96L34 whole entry, looked up): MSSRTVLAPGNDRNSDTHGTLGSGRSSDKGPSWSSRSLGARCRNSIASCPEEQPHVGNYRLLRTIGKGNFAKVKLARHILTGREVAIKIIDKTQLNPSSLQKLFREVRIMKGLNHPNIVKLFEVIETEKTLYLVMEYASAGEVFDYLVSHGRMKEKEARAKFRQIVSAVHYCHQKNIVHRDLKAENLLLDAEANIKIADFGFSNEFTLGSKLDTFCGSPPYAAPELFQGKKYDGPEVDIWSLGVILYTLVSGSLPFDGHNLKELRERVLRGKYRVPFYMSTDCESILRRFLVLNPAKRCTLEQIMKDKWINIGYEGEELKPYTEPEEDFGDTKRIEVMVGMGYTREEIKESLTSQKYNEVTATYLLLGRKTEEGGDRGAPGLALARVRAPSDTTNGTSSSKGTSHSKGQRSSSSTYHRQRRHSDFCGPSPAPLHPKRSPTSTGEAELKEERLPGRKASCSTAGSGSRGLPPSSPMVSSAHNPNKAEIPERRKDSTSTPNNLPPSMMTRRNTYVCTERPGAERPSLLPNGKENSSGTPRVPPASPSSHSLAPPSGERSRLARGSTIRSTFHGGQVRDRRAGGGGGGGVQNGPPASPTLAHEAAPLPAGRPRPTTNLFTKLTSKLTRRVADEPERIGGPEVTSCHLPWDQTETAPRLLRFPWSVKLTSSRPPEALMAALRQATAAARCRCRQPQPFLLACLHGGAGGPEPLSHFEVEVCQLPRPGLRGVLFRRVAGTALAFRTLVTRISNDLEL

MELK (human) = MELK (human) (UniProt Q14680)
MYLK (human) = MYLK (human) (UniProt Q15746); settings: compound 10.0 µM
[2] = tested on: PAK2 (human), Q13177 [T402E]; settings: compound 10.0 µM
PAK6 (human) = PAK6 (human) (UniProt Q9NQU5)
PKN2 (human) = PKN2 (human) (UniProt Q16513)
PRKCZ (human) = PRKCZ (human) (UniProt Q05513)
SRC (human) = SRC (human) (UniProt P12931)
[3] = molecular target: STK11 CAB39 STRADA (human) (UniProt Q9Y376+Q7RTN6+Q15831)
SYK (human) = SYK (human) (UniProt P43405)
TAOK1 (human) = TAOK1 (human) (UniProt Q7L7X3)
TTK (human) = TTK (human) (UniProt P33981)
TTK (human), sequence (P33981 whole entry, looked up): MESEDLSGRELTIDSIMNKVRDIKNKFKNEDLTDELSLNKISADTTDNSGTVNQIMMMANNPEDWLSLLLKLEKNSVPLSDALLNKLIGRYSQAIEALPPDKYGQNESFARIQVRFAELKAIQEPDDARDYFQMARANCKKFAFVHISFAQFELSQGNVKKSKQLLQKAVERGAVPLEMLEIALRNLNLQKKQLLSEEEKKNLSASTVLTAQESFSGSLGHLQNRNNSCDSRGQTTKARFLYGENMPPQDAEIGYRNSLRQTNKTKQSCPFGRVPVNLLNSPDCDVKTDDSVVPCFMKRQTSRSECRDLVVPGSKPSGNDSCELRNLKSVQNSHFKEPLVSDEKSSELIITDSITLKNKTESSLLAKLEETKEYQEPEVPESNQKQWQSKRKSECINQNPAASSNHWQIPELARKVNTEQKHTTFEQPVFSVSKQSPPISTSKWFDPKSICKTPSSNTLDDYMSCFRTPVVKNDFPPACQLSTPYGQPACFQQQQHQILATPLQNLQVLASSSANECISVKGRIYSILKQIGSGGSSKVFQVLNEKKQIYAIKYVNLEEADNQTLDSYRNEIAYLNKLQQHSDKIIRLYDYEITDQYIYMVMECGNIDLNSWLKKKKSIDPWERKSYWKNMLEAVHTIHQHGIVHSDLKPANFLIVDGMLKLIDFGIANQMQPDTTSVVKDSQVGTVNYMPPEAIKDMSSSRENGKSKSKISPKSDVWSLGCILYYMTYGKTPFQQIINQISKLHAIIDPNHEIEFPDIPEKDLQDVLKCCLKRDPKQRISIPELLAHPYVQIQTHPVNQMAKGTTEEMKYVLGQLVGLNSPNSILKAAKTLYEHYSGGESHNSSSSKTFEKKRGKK

YES1 (human) = YES1 (human) (UniProt P07947)

CHEK1 (human), sequence (O14757 whole entry, looked up): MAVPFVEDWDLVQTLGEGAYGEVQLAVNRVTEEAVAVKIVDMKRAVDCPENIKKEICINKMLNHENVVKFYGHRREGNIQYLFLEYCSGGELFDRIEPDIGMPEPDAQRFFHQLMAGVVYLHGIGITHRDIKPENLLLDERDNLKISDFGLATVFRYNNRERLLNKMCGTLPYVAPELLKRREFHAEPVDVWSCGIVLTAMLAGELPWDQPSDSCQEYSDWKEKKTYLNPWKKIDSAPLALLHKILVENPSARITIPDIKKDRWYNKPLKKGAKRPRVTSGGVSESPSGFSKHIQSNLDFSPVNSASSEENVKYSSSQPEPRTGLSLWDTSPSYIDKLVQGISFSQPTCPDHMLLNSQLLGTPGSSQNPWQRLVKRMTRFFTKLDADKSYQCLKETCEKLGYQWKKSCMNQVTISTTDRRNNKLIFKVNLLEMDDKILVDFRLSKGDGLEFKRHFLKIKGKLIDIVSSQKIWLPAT
AURKA (human), sequence (O14965 whole entry, looked up): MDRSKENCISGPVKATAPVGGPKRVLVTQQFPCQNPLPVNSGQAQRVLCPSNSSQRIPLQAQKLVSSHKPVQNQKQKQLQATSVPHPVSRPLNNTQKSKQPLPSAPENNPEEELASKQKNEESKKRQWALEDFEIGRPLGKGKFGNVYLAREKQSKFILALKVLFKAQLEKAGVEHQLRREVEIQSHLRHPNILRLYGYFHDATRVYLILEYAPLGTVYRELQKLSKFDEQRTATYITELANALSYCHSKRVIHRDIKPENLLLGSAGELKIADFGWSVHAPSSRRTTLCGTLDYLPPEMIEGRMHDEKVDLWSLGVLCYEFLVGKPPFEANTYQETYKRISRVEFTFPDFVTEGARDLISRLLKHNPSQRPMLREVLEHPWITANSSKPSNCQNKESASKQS

O=C(NOC[C@H](O)CO)c1ccc(F)c(F)c1Nc1ccc(I)cc1Cl
residual activity ([1]; compound 1.0 µM): 95% | residual activity ([1]; compound 10.0 µM): 82% | residual activity (AURKA (human); compound 1.0 µM): 112% | residual activity (AURKA (human); compound 10.0 µM): 108% | residual activity (AURKB (human); compound 1.0 µM): 87% | residual activity (AURKB (human); compound 10.0 µM): 82% | residual activity (CHEK1 (human); compound 1.0 µM): 130% | residual activity (CHEK1 (human); compound 10.0 µM): 122% | residual activity (CSNK1D (human); compound 1.0 µM): 89% | residual activity (CSNK1D (human); compound 10.0 µM): 101% | residual activity (EEF2K (human); compound 1.0 µM): 83% | residual activity (EEF2K (human); compound 10.0 µM): 93% | residual activity (EPHB1 (human); compound 1.0 µM): 95% | residual activity (EPHB1 (human); compound 10.0 µM): 115% | residual activity (EPHB4 (human); compound 1.0 µM): 90% | residual activity (EPHB4 (human); compound 10.0 µM): 99% | residual activity (FGFR1 (human); compound 1.0 µM): 140% | residual activity (FGFR1 (human); compound 10.0 µM): 83% | residual activity (FLT1 (human)): 39% | residual activity (GCK (human); compound 1.0 µM): 90% | residual activity (GSK3B (human); compound 1.0 µM): 70% | residual activity (GSK3B (human); compound 10.0 µM): 88% | residual activity (HIPK1 (human); compound 1.0 µM): 84% | residual activity (HIPK1 (human); compound 10.0 µM): 92% | residual activity (HIPK2 (human); compound 1.0 µM): 93% | residual activity (HIPK2 (human); compound 10.0 µM): 104% | residual activity (IGF1R (human); compound 1.0 µM): 88% | residual activity (IGF1R (human); compound 10.0 µM): 113% | residual activity (MAP2K2 (human); compound 1.0 µM): 54% | residual activity (MAP2K2 (human); compound 10.0 µM): 16% | residual activity (MAP3K5 (human); compound 1.0 µM): 108% | residual activity (MAP3K5 (human); compound 10.0 µM): 116% | residual activity (MAP3K9 (human); compound 1.0 µM): 95% | residual activity (MAP3K9 (human); compound 10.0 µM): 108% | residual activity (MAPK1 (human); compound 1.0 µM): 90% | residual activity (MAPK1 (human); compound 10.0 µM): 100% | residual activity (MAPK10 (human)): 85% | residual activity (MAPK13 (human); compound 1.0 µM): 85% | residual activity (MAPK13 (human); compound 10.0 µM): 97% | residual activity (MAPK9 (human); compound 1.0 µM): 90% | residual activity (MAPK9 (human); compound 10.0 µM): 105% | residual activity (MARK4 (human); compound 1.0 µM): 112% | residual activity (MARK4 (human); compound 10.0 µM): 127% | residual activity (MELK (human); compound 1.0 µM): 81% | residual activity (MELK (human); compound 10.0 µM): 97% | residual activity (MYLK (human)): 98% | residual activity [2]: 91% | residual activity (PAK6 (human); compound 1.0 µM): 95% | residual activity (PAK6 (human); compound 10.0 µM): 105% | residual activity (PKN2 (human); compound 1.0 µM): 82% | residual activity (PKN2 (human); compound 10.0 µM): 83% | residual activity (PRKCZ (human); compound 1.0 µM): 97% | residual activity (PRKCZ (human); compound 10.0 µM): 104% | residual activity (SRC (human); compound 1.0 µM): 104% | residual activity (SRC (human); compound 10.0 µM): 91% | residual activity ([3]; compound 1.0 µM): 113% | residual activity (SYK (human); compound 1.0 µM): 111% | residual activity (TAOK1 (human); compound 1.0 µM): 101% | residual activity (TAOK1 (human); compound 10.0 µM): 109% | residual activity (TTK (human); compound 1.0 µM): 98% | residual activity (TTK (human); compound 10.0 µM): 121% | residual activity (YES1 (human); compound 1.0 µM): 82% | residual activity (YES1 (human); compound 10.0 µM): 86%

CCOC(=O)c1ccc(N2NC(=O)/C(=C/c3ccc([N+](=O)[O-])o3)C2=O)cc1
residual activity ([1]; compound 10.0 µM): 49% | residual activity (AURKA (human); compound 10.0 µM): 76% | residual activity (AURKB (human); compound 10.0 µM): 102% | residual activity (CHEK1 (human); compound 10.0 µM): 164% | residual activity (CSNK1D (human); compound 10.0 µM): 112% | residual activity (EEF2K (human); compound 10.0 µM): 97% | residual activity (EPHB1 (human); compound 10.0 µM): 85% | residual activity (EPHB4 (human); compound 10.0 µM): 89% | residual activity (FGFR1 (human); compound 10.0 µM): 69% | residual activity (FLT1 (human)): 47% | residual activity (GCK (human); compound 10.0 µM): 96% | residual activity (GSK3B (human); compound 10.0 µM): 106% | residual activity (HIPK1 (human); compound 10.0 µM): 98% | residual activity (MAP2K2 (human); compound 10.0 µM): 9% | residual activity (MAP3K9 (human); compound 10.0 µM): 78% | residual activity (MAPK1 (human); compound 10.0 µM): 82% | residual activity (MAPK10 (human)): 79% | residual activity (MAPK13 (human); compound 10.0 µM): 106% | residual activity (MAPK9 (human); compound 10.0 µM): 93% | residual activity (MARK4 (human); compound 10.0 µM): 52% | residual activity (MELK (human); compound 10.0 µM): 82% | residual activity (MYLK (human)): 109% | residual activity [2]: 91% | residual activity (PAK6 (human); compound 10.0 µM): 133% | residual activity (PKN2 (human); compound 10.0 µM): 105% | residual activity (PRKCZ (human); compound 10.0 µM): 112% | residual activity ([3]; compound 10.0 µM): 134% | residual activity (SYK (human); compound 10.0 µM): 92% | residual activity (TAOK1 (human); compound 10.0 µM): 126% | residual activity (TTK (human); compound 10.0 µM): 90% | residual activity (YES1 (human); compound 10.0 µM): 110%
